Experimental data from patent US8513270B2, “Substituted heterocycles as Janus kinase inhibitors” (Incyte Corporation, priority 2006, dated 2013).
Counter-ions that a name gives are not always drawn.

What was measured:
[1] = target: T1, human JAK2 (a.a. 828-1132) (Homo sapiens, UniProt O60674); assay: In vitro JAK kinase assay (HTRF), JAK2; assay type: biochemical; settings: JAK2, 30 μM ATP; read-out: EXAMPLE A HTS-JAK2 HTRF-2 IC50
T1 construct: JAK2 (a.a. 828-1132); His tag (N); made in house; host or cells: insect cells (baculovirus)
Protocol: (§1) Compounds herein were tested for inhibitory activity of JAK targets according to the following in vitro assay described in Park et al., Analytical Biochemistry 1999, 269, 94-104. The catalytic domains of human JAK1 (a.a. 837-1142), JAK2 (a.a. 828-1132) and JAK3 (a.a. 781-1124) with an N-terminal His tag were expressed using baculovirus in insect cells and purified. The catalytic activity of JAK1, JAK2 or JAK3 was assayed by measuring the phosphorylation of a biotinylated peptide. The phosphorylated peptide was detected by homogenous time resolved fluorescence (HTRF). IC50s of compounds were measured for each kinase in the reactions that contain the enzyme, ATP and 500 nM peptide in 50 mM Tris (pH 7.8) buffer with 100 mM NaCl, 5 mM DTT, and 0.1 mg/mL (0.01%) BSA. The ATP concentration in the reactions was 90 μM for JAK1, 30 μM for JAK2 and 3 μM for JAK3. Reactions were carried out at room temperature for 1 hr and then stopped with 20 μL 45 mM EDTA, 300 nM SA-APC, 6 nM Eu—Py20 in assay buffer (Perkin Elmer, Boston, Mass.). Binding to the Europium labeled antibody took place for 40 minutes and HTRF signal was measured on a Fusion plate reader (Perkin Elmer, Boston, Mass.).

[2] = target: T2, human JAK1 (a.a. 837-1142) (Homo sapiens, UniProt P23458); assay: In vitro JAK kinase assay (HTRF), JAK1; assay type: biochemical; settings: JAK1, 90 μM ATP; read-out: EXAMPLE A JAK2-JAK1 HTRF-2 IC50
T2 construct: human JAK1 (a.a. 837-1142); His tag (N); made in house; host or cells: insect cells (baculovirus)
Protocol: as §1

[3] = target: T3, human JAK3 (a.a. 781-1124) (Homo sapiens, UniProt P52333); assay: In vitro JAK kinase assay (HTRF), JAK3; assay type: biochemical; settings: JAK3, 3 μM ATP; read-out: EXAMPLE A JAK2-JAK3 HTRF-2 IC50
T3 construct: JAK3 (a.a. 781-1124); His tag (N); made in house; host or cells: insect cells (baculovirus)
Protocol: as §1

[4] = target: TF1-BCRABL1 cells (Homo sapiens, UniProt P00519); assay: ABL1 cell based assay: viability of ABL1-dependent cell line (CellTiter-Glo); settings: 72 hours, cell viability; read-out: EXAMPLE F JAK2-TF1-BCRABL1 IC50
Protocol: One or more compounds herein were tested for inhibitory activity of ABL1 targets according to at least one of the following cellular assays.
Cancer cell lines dependent on ABL1 kinase activity for proliferation and/or survival were plated at 3000 cells per well (96 well plate format) in RPMI 1640, and 10% FBS. Compounds were added to the cells in DMSO/media (final concentration 0.2% DMSO) and incubated for 72 hours at 37° C., 5% CO2. The effect of compound on cell viability was assessed using the CellTiter-Glo Luminescent Cell Viability Assay (Promega) followed by TopCount (Perkin Elmer, Boston, Mass.) quantitation. ABL1-dependent cell lines can include those naturally dependent on ABL1 activity or those engineered to be dependent on ABL1 activity (e.g. BaF/3 cells). The latter can be generated using wild-type ABL1 or mutant ABL1 (such as T315I ABL1) so that the activity of compounds can be assessed against different variants of the ABL1 kinase. Potential off-target effects of compounds were measured in parallel using a non-ABL1 driven cell line with the same assay readout. […] All experiments were performed in duplicate or greater.

TF1-BCRABL1 cells, sequence (P00519 whole entry, change not shown): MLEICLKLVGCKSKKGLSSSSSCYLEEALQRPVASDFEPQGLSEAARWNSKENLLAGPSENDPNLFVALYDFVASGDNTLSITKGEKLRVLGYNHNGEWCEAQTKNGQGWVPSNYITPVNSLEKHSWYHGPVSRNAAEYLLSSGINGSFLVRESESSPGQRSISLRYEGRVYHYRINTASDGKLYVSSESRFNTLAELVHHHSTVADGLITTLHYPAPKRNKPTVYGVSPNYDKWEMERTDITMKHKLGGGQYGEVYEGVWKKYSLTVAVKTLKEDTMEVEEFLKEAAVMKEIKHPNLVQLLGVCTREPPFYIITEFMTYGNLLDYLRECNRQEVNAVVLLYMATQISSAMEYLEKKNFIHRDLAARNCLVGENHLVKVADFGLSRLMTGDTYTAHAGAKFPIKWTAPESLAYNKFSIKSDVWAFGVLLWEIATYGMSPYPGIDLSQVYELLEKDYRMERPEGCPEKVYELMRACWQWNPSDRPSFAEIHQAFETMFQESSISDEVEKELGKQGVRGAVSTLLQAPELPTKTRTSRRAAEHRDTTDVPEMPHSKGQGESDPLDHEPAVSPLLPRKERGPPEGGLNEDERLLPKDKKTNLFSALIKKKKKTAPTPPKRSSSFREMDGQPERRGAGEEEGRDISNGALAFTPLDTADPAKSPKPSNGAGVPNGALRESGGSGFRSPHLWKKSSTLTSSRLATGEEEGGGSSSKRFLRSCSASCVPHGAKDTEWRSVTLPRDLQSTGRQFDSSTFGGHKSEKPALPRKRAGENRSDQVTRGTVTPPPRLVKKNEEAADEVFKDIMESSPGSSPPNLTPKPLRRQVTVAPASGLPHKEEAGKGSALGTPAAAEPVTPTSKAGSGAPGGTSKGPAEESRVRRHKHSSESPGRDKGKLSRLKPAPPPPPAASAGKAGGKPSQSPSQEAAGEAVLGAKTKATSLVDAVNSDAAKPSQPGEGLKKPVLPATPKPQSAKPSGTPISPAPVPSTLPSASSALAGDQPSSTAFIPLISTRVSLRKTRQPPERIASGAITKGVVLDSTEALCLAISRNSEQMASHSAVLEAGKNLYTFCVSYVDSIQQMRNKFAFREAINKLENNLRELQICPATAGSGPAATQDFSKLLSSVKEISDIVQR
T1 sequence (O60674 828-1132): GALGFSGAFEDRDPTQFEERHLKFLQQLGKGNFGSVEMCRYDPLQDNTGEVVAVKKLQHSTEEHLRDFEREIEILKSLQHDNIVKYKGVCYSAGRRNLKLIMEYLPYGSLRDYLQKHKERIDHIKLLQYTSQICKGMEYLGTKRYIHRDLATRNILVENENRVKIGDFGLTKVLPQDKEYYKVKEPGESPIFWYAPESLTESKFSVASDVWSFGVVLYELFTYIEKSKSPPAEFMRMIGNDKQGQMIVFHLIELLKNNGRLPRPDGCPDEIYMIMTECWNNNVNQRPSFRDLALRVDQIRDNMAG
T2 sequence (P23458 849-1154): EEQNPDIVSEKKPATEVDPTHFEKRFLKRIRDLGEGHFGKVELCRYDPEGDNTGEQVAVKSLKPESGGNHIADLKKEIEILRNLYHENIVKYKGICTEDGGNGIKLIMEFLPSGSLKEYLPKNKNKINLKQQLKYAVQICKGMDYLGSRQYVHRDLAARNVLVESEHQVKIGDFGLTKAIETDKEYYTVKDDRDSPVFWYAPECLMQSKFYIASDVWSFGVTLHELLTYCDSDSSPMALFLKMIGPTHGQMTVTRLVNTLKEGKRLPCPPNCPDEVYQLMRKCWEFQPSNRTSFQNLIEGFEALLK
T3 sequence (P52333 781-1124): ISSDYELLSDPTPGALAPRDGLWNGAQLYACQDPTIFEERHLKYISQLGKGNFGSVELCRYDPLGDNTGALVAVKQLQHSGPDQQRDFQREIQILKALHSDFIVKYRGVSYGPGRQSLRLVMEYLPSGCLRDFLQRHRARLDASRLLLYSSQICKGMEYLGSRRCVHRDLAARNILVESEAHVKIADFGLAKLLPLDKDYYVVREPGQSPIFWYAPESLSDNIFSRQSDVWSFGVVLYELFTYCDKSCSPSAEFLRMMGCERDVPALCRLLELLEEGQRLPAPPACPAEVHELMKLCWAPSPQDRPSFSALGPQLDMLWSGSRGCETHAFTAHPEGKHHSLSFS

Cc1ccc(NC(=O)c2cc(-n3ccnc3)cc(C(F)(F)F)c2)cc1-c1ccc2c(c1)[nH]c1ncncc12 [Example 23, 3-(1H-imidazol-1-yl)-N-[4-methyl-3-(9H-pyrimido[4,5-b]-indol-7-yl)phenyl]-5-(trifluoromethyl)benzamide]
≤ 500 nM: IC50 [1] | IC50 [2] | IC50 [3] | GI50 [4]

Cc1ccc(NC(=O)c2cc(N3CCC(O)CC3)cc(C(F)(F)F)c2)cc1-c1ccc2c(c1)[nH]c1ncncc12 [Example 29, 3-(4-hydroxypiperidin-1-yl)-N-[4-methyl-3-(9H-pyrimido[4,5-b]indol-7-yl)phenyl]-5-(trifluoromethyl)benzamide]
≤ 500 nM: IC50 [1] | IC50 [2] | IC50 [3] | GI50 [4]

Cc1ccc(NC(=O)c2cc(N(C)C)cc(C(F)(F)F)c2)cc1-c1ccc2c(c1)[nH]c1ncncc12 [Example 36, 3-(dimethylamino)-N-[4-methyl-3-(9H-pyrimido[4,5-b]-indol-7-yl)phenyl]-5-(trifluoromethyl)benzamide]
≤ 500 nM: IC50 [1] | IC50 [2] | IC50 [3] | GI50 [4]

Cc1ccc(NC(=O)c2cc(N3CCCC(O)C3)cc(C(F)(F)F)c2)cc1-c1ccc2c(c1)[nH]c1ncncc12 (centres unmarked) [Example 30, 3-(3-hydroxypiperidin-1-yl)-N-[4-methyl-3-(9H-pyrimido[4,5-b]indol-7-yl)phenyl]-5-(trifluoromethyl)benzamide]
≤ 500 nM: IC50 [1] | IC50 [2] | IC50 [3] | GI50 [4]

Cc1ccc(NC(=O)c2cc(-n3cncn3)cc(C(F)(F)F)c2)cc1-c1ccc2c(c1)[nH]c1ncncc12 [Example 24, N-[4-methyl-3-(9H-pyrimido-[4,5-b]indol-7-yl)phenyl]-3-(1H-1,2,4-triazol-1-yl)-5-(trifluoromethyl)benzamide]
≤ 500 nM: IC50 [1] | IC50 [2] | IC50 [3] | GI50 [4]

Cc1ccc(NC(=O)c2cc(-n3cnc(CO)c3)cc(C(F)(F)F)c2)cc1-c1ccc2c(c1)[nH]c1ncncc12 [Example 21, 3-[4-(Hydroxymethyl)-1H-imidazol-1-yl]-N-[4-methyl-3-(9H-pyrimido[4,5-b]indol-7-yl)phenyl]-5-(trifluoromethyl)benzamide bis(trifluoroacetate) (salt)]
≤ 500 nM: IC50 [1] | IC50 [2] | IC50 [3] | GI50 [4]

Cc1ccc(NC(=O)c2cc(NCCN3CCOCC3)cc(C(F)(F)F)c2)cc1-c1ccc2c(c1)[nH]c1ncncc12 [Example 31, N-[4-methyl-3-(9H-pyrimido-[4,5-b]indol-7-yl)phenyl]-3-[(2-morpholin-4-ylethyl)amino]-5-(trifluoromethyl)benzamide]
≤ 500 nM: IC50 [1] | IC50 [2] | IC50 [3] | GI50 [4]

Cc1ncc(NC(=O)c2cc(-n3cncn3)cc(C(F)(F)F)c2)cc1-c1ccc2c(c1)[nH]c1ncncc12 [Example 73, N-[6-methyl-5-(9H-pyrimido[4,5-b]indol-7-yl)pyridin-3-yl]-3-(1H-1,2,4-triazol-1-yl)-5-(trifluoromethyl)benzamide bis(trifluoroacetate)]
≤ 500 nM: IC50 [1] | IC50 [2] | IC50 [3] | GI50 [4]

Cc1ccc(NC(=O)c2cc(NCCCN(C)C)cc(C(F)(F)F)c2)cc1-c1ccc2c(c1)[nH]c1ncncc12 [Example 33, 3-{[3-(dimethylamino)propyl]-amino}-N-[4-methyl-3-(9H-pyrimido[4,5-b]indol-7-yl)-phenyl]-5-(trifluoromethyl)-benzamide]
≤ 500 nM: IC50 [1] | IC50 [2] | IC50 [3] | GI50 [4]

Cc1ccc(NC(=O)c2cc(C(F)(F)F)ccc2F)cc1-c1ccc2c(c1)[nH]c1ncncc12 [Example 5, 2-fluoro-N-[4-methyl-3-(9H-pyrimido[4,5-b]indol-7-yl)-phenyl]-5-(trifluoromethyl)-benzamide]
≤ 500 nM: IC50 [1] | IC50 [2] | IC50 [3] | GI50 [4]

Cc1ncc(NC(=O)c2cc(NCCN(C)C)cc(C(F)(F)F)c2)cc1-c1ccc2c(c1)[nH]c1ncncc12 [Example 76, 3-[2-(dimethylamino)ethyl]amino-N-[6-methyl-5-(9H-pyrimido[4,5-b]indol-7-yl)pyridin-3-yl]-5-(trifluoromethyl)benzamide tris(trifluoroacetate)]
≤ 500 nM: IC50 [1] | IC50 [2] | IC50 [3] | GI50 [4]

COc1ccc(C(=O)Nc2ccc(C)c(-c3ccc4c(c3)[nH]c3ncncc34)c2)cc1C(F)(F)F [Example 10, 4-methoxy-N-[4-methyl-3-(9H-pyrimido[4,5-b]indol-7-yl)-phenyl]-3-(trifluoromethyl)-benzamide]
≤ 500 nM: IC50 [1] | IC50 [2] | IC50 [3] | GI50 [4]

Cc1ccc(NC(=O)c2cc(-n3cnc(C=O)c3)cc(C(F)(F)F)c2)cc1-c1ccc2c(c1)[nH]c1ncncc12 [Example 20, 3-(4-Formyl-1H-imidazol-1-yl)-N-[4-methyl-3-(9H-pyrimido[4,5-b]indol-7-yl)phenyl]-5-(trifluoromethyl)benzamide trifluoroacetate]
≤ 500 nM: IC50 [1] | IC50 [2] | IC50 [3] | GI50 [4]

CNCc1cn(-c2cc(C(=O)Nc3ccc(C)c(-c4ccc5c(c4)[nH]c4ncncc45)c3)cc(C(F)(F)F)c2)cn1 [Example 22, 3-4-[(Methylamino)methyl]-1H-imidazol-1-yl-N-[4-methyl-3-(9H-pyrimido[4,5-b]-indol-7-yl)phenyl]-5-(trifluoromethyl)benzamide tris(trifluoroacetate)]
≤ 500 nM: IC50 [1] | IC50 [2] | IC50 [3] | GI50 [4]

Cc1ncc(NC(=O)c2cc(-n3ccnc3)cc(C(F)(F)F)c2)cc1-c1ccc2c(c1)[nH]c1ncncc12 [Example 72, 3-(1H-imidazol-1-yl)-N-[6-methyl-5-(9H-pyrimido[4,5-b]indol-7-yl)pyridin-3-yl]-5-(trifluoromethyl)benzamide tris(trifluoroacetate)]
≤ 500 nM: IC50 [1] | IC50 [2] | IC50 [3] | GI50 [4]

Cc1ccc(NC(=O)c2cc(N3CCOCC3)cc(C(F)(F)F)c2)cc1-c1ccc2c(c1)[nH]c1ncncc12 [Example 27, N-[4-methyl-3-(9H-pyrimido-[4,5-b]indol-7-yl)phenyl]-3-morpholin-4-yl-5-(trifluoromethyl)benzamide]
≤ 500 nM: IC50 [1] | IC50 [2] | IC50 [3] | GI50 [4]

Cc1ccc(NC(=O)c2cc(C(F)(F)F)ccn2)cc1-c1ccc2c(c1)[nH]c1ncncc12 [Example 18, N-[4-methyl-3-(9H-pyrimido[4,5-b]indol-7-yl)-phenyl]-4-(trifluoromethyl) pyridine-2-carboxamide]
≤ 500 nM: IC50 [1] | IC50 [2] | IC50 [3] | GI50 [4]
